The target of the test is T1, ERR1 (also known as ERR-α or ERR-1) (Homo sapiens, UniProt P11474).
T1 sequence (P11474 193-421 limits assumed): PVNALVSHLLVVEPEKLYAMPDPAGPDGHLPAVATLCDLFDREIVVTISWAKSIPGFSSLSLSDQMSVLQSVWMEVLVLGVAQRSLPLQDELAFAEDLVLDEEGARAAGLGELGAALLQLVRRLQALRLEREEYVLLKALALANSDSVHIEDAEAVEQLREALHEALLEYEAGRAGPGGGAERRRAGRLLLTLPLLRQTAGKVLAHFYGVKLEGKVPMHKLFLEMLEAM
Briefly: TR-FRET assay (disruption of co-activator peptide binding). The class given is biochemical. Particulars: 6His-tagged ERR1LBD, GST-hSRC2 co-activator peptide; average of 3 independent experiments. The protocol: Time-Resolved Fluorescence Resonance Energy Transfer (TR-FRET) experiments were performed to examine the functional response of ERR1 (also known as ERR-α or ERR-1) ligands. The TR-FRET assay described herein relied on the conformation of ERR1 for binding to a co-activator peptide: when a test compound binds to ERR1 and alters its conformation, it can disrupt the binding of the co-activator peptide. The components of this homogeneous secondary assay included: the ^6His-tagged-ERR1LBD, a GST-labeled-hSRC2 co-activator polypeptide and a fluorescent donor/acceptor pair from CIS bio international htrf/bioassays (Bedford, Mass.) using both an α-GST Europium Cryptate (Eu) label and an α^6His-XL665 (allophycocyanin) fluorophore.
For TR-FRET measurements, the reaction was buffered in 25 mM Tris pH 8, 2.5 mM Hepes, 20 mM KCl, 1 mM DTT, and 0.05 mg/mL BSA (-lipids). The final concentrations of reagents were 6 nM of ERR1LBD, 6 nM GST-SRC-2 peptide, 30 nM Eu cryptate, and 7.5 nM XL665. Reactions were allowed to reach equilibrium at 25° C. for 4-18 hours before collecting data on the Analyst from LJL Biosystems (Molecular Devices Sunnyvale, Calif.). As a time-resolved method, the samples were excited at […] and emission was collected for 1 ms at both 615 and 665 nm with delays of 400 and 75 μs, respectively. Dose response curves were fitted using a hyperbolic equation and the data reported is the average of 3 independent experiments.
On the technique in general: In TR-FRET formats the signal depends on donor and acceptor labels being close together.

In patent US8426604B2 (Janssen Pharmaceutica NV, priority 2010, dated 2013) one finds EC50 data, which are given here for 24 molecules.

Turning to `CN(CCN1CCOCC1)C1=NC(=O)/C(=C/c2ccc3c(cnn3Cc3ccc(C(F)(F)F)cc3C(F)(F)F)c2)S1` [Compound 27, 5-[1-(2,4-Bis-trifluoromethyl-benzyl)-1H-indazol-5-ylmethylene]-2-[methyl-(2-morpholin-4-yl-ethyl)-amino]-thiazol-4-one], the EC50 (in general, the concentration giving half of the maximal effect) is 21 nM.
In the case of `CN(C1=NC(=O)/C(=C/c2ccc3c(cnn3Cc3ccc(C(F)(F)F)cc3C(F)(F)F)c2)S1)C1CCNC1` (stereo not drawn) [Compound 28, 5-[1-(2,4-Bis-trifluoromethyl-benzyl)-1H-indazol-5-ylmethylene]-2-(methyl-pyrrolidin-3-yl-amino)-thiazol-4-one] it was 30 nM; in that of `CN1CCC(N(C)C2=NC(=O)/C(=C/c3ccc4c(cnn4Cc4ccc(C(F)(F)F)cc4C(F)(F)F)c3)S2)C1` (stereo not drawn) [Compound 29, 5-[1-(2,4-Bis-trifluoromethyl-benzyl)-1H-indazol-5-ylmethylene]-2-[methyl-(1-methyl-pyrrolidin-3-yl)-amino]-thiazol-4-one], 67 nM; in that of `CN(CCO)C1=NC(=O)/C(=C/c2ccc3c(cnn3Cc3ccc(Cl)cc3C(F)(F)F)c2)S1` [Compound 30, 5-[1-(4-Chloro-2-trifluoromethyl-benzyl)-1H-indazol-5-ylmethylene]-2-[(2-hydroxy-ethyl)-methyl-amino]-thiazol-4-one], 12 nM.
Molecule `CN(C[C@H](O)c1ccc(O)cc1)C1=NC(=O)/C(=C/c2ccc3c(cnn3Cc3ccc(Cl)cc3C(F)(F)F)c2)S1` [Compound 31, (R)-5-[1-(4-Chloro-2-trifluoromethyl-benzyl)-1H-indazol-5-ylmethylene]-2-{[2-hydroxy-2-(4-hydroxy-phenyl)-ethyl]-methyl-amino}-thiazol-4-one] displayed an EC50 of 31 nM.
`CCN(CC)CCN(C)C1=NC(=O)/C(=C/c2ccc3c(cnn3Cc3ccc(Cl)cc3C(F)(F)F)c2)S1` [Compound 32, 5-[1-(4-Chloro-2-trifluoromethyl-benzyl)-1H-indazol-5-ylmethylene]-2-[(2-diethylamino-ethyl)-methyl-amino]-thiazol-4-one] gave an EC50 of 15 nM.
With `CN(CCCn1cccn1)C1=NC(=O)/C(=C/c2ccc3c(cnn3Cc3ccc(Cl)cc3C(F)(F)F)c2)S1` [Compound 33, 5-[1-(4-Chloro-2-trifluoromethyl-benzyl)-1H-indazol-5-ylmethylene]-2-[methyl-(3-pyrazol-1-yl-propyl)-amino]-thiazol-4-one], the EC50 worked out at 13 nM.
Take `CN1CCC(CN(C)C2=NC(=O)/C(=C/c3ccc4c(cnn4Cc4ccc(Cl)cc4C(F)(F)F)c3)S2)C1` (stereo not drawn) [Compound 34, 5-[1-(4-Chloro-2-trifluoromethyl-benzyl)-1H-indazol-5-ylmethylene]-2-[methyl-(1-methyl-pyrrolidin-3-ylmethyl)-amino]-thiazol-4-one]: it took 17 nM to reach a half-maximal effect (EC50).
As for `CN1CCC(N(C)C2=NC(=O)/C(=C/c3ccc4c(cnn4Cc4ccc(Cl)cc4C(F)(F)F)c3)S2)C1` (stereo not drawn) [Compound 35, 5-[1-(4-Chloro-2-trifluoromethyl-benzyl)-1H-indazol-5-ylmethylene]-2-[methyl-(1-methyl-pyrrolidin-3-yl)-amino]-thiazol-4-one], the EC50 was determined as 18 nM.
In turn, `CN(CC1(CO)CC1)C1=NC(=O)/C(=C/c2ccc3c(cnn3Cc3ccc(Cl)cc3C(F)(F)F)c2)S1` [Compound 36, 5-[1-(4-Chloro-2-trifluoromethyl-benzyl)-1H-indazol-5-ylmethylene]-2-[(1-hydroxymethyl-cyclopropylmethyl)-methyl-amino]-thiazol-4-one] showed an EC50 of 21 nM. This EC50 and that of the molecule before are within 1.5-fold of each other.
As for `CCOC(=O)N1CCC(N(C)C2=NC(=O)/C(=C/c3ccc4c(cnn4Cc4ccc(Cl)cc4C(F)(F)F)c3)S2)CC1` [Compound 37, 4-({5-[1-(4-Chloro-2-trifluoromethyl-benzyl)-1H-indazol-5-ylmethylene]-4-oxo-4,5-dihydro-thiazol-2-yl}-methyl-amino)-piperidine-1-carboxylic acid ethyl ester], the EC50 came to 69 nM. Compared with the last molecule, the EC50 is about 3.3-fold higher.
For `CN(CCC#N)C1=NC(=O)/C(=C/c2ccc3c(cnn3Cc3ccc(Cl)cc3C(F)(F)F)c2)S1` [Compound 38, 3-({5-[1-(4-Chloro-2-trifluoromethyl-benzyl)-1H-indazol-5-ylmethylene]-4-oxo-4,5-dihydro-thiazol-2-yl}-methyl-amino)-propionitrile], the EC50 was 26 nM.
`C=CCN(C)C1=NC(=O)/C(=C/c2ccc3c(cnn3Cc3ccc(Cl)cc3C(F)(F)F)c2)S1` [Compound 39, 2-(Allyl-methyl-amino)-5-[1-(4-chloro-2-trifluoromethyl-benzyl)-1H-indazol-5-ylmethylene]-thiazol-4-one] displayed an EC50 of 25 nM.
Molecule `COC[C@@H]1CC(N(C)C2=NC(=O)/C(=C/c3ccc4c(cnn4Cc4ccc(C(F)(F)F)cc4C(F)(F)F)c3)S2)CN1` (stereo partly drawn) [Compound 40, 5-[1-(2,4-Bis-trifluoromethyl-benzyl)-1H-indazol-5-ylmethylene]-2-[(5-methoxymethyl-pyrrolidin-3-yl)-methyl-amino]-thiazol-4-one] came in with a concentration for a half-maximal effect (EC50) of 21 nM.
For the molecule `CN(C1=NC(=O)/C(=C/c2ccc3c(cnn3Cc3ccc(C(F)(F)F)cc3C(F)(F)F)c2)S1)C1CN[C@H](CO)C1` (stereo partly drawn) [Compound 43, 5-[1-(2,4-Bis-trifluoromethyl-benzyl)-1H-indazol-5-ylmethylene]-2-[(5-hydroxymethyl-pyrrolidin-3-yl)-methyl-amino]-thiazol-4-one], a half-maximal effect (EC50) was put at 30 nM. This EC50 and that of the molecule before are within 1.5-fold of each other.
`COC[C@@H]1CC(N(C)C2=NC(=O)/C(=C/c3ccc4c(cnn4Cc4ccc(C(F)(F)F)cc4C(F)(F)F)c3)S2)CN1C` (stereo partly drawn) [Compound 44, 5-[1-(2,4-Bis-trifluoromethyl-benzyl)-1H-indazol-5-ylmethylene]-2-[(5-methoxymethyl-1-methyl-pyrrolidin-3-yl)-methyl-amino]-thiazol-4-one] registered a concentration for a half-maximal effect (EC50) of 32 nM.
In the case of `CN(CC(O)CN)C1=NC(=O)/C(=C/c2ccc3c(cnn3Cc3ccc(Cl)cc3C(F)(F)F)c2)S1` (stereo not drawn) [Compound 45, 2-[(3-Amino-2-hydroxy-propyl)-methyl-amino]-5-[1-(4-chloro-2-trifluoromethyl-benzyl)-1H-indazol-5-ylmethylene]-thiazol-4-one] it was 120 nM.
The molecule `CN(Cc1cccnc1)C1=NC(=O)/C(=C/c2ccc3c(cnn3Cc3ccc(Cl)cc3C(F)(F)F)c2)S1` [Compound 46, 5-[1-(4-Chloro-2-trifluoromethyl-benzyl)-1H-indazol-5-ylmethylene]-2-(methyl-pyridin-3-ylmethyl-amino)-thiazol-4-one] had an EC50 of 22 nM.
The result for `COCCN1CCC(CN(C)C2=NC(=O)/C(=C/c3ccc4c(cnn4Cc4ccc(Cl)cc4C(F)(F)F)c3)S2)C1` (stereo not drawn) [Compound 47, 5-[1-(4-Chloro-2-trifluoromethyl-benzyl)-1H-indazol-5-ylmethylene]-2-{[1-(2-methoxy-ethyl)-pyrrolidin-3-ylmethyl]-methyl-amino}-thiazol-4-one] reads 17 nM; that for `CN(C1=NC(=O)/C(=C/c2ccc3c(cnn3Cc3ccc(Cl)cc3C(F)(F)F)c2)S1)C1CNC1` [Compound 48, 2-(Azetidin-3-yl-methyl-amino)-5-[1-(4-chloro-2-trifluoromethyl-benzyl)-1H-indazol-5-ylmethylene]-thiazol-4-one], 43 nM.
The molecule `CNCC(O)CN(C)C1=NC(=O)/C(=C/c2ccc3c(cnn3Cc3ccc(Cl)cc3C(F)(F)F)c2)S1` (stereo not drawn) [Compound 49, 5-[1-(4-Chloro-2-trifluoromethyl-benzyl)-1H-indazol-5-ylmethylene]-2-[(2-hydroxy-3-methylamino-propyl)-methyl-amino]-thiazol-4-one] came in with a half-maximal effective concentration (EC50) of 41 nM. The EC50 values of the last two molecules are within 1.5-fold of each other.
In the case of `CN(CC(O)CN1CCCC1)C1=NC(=O)/C(=C/c2ccc3c(cnn3Cc3ccc(Cl)cc3C(F)(F)F)c2)S1` (stereo not drawn) [Compound 50, 5-[1-(4-Chloro-2-trifluoromethyl-benzyl)-1H-indazol-5-ylmethylene]-2-[(2-hydroxy-3-pyrrolidin-1-yl-propyl)-methyl-amino]-thiazol-4-one] it was 23 nM.
With `CCN(CC)CCN(C)C1=NC(=O)/C(=C/c2ccc3c(c2)c(I)nn3Cc2ccc(C(F)(F)F)cc2C(F)(F)F)S1` [Compound 51, 5-[1-(2,4-Bis-trifluoromethyl-benzyl)-3-iodo-1H-indazol-5-ylmethylene]-2-[(2-diethylamino-ethyl)-methyl-amino]-thiazol-4-one], the EC50 stood at 11 nM.
The molecule `CC(C(N)=O)N1CCC(N(C)C2=NC(=O)/C(=C/c3ccc4c(cnn4Cc4ccc(C(F)(F)F)cc4C(F)(F)F)c3)S2)CC1` (stereo not drawn) [Compound 53, 2-(4-{[-5-({1-[2,4-Bis(trifluoromethyl)benzyl]-1H-indazol-5-yl}methylidene)-4-oxo-4,5-dihydro-1,3-thiazol-2-yl](methyl)amino}piperidin-1-yl)propionamide] registered an EC50 of 24 nM.
